This is an account of results in US8236820B2, “Anti-inflammatory compounds and uses thereof” (priority 2007, dated 2012).

The subject of one data set is MCF-7. Description: Cell viability (MTT) assay, 24-h IC50, MCF-7. The following applies: Homo sapiens, MCF7, 24 h, read-out: 24-h IC50. It is filed as cell-based, human.
In a further data set the test system is HT29. Description: Cell viability (MTT) assay, 24-h IC50, HT29. It is filed as cell-based, human. The following applies: Homo sapiens, HT-29, 24 h, read-out: 24-h IC50.
A further data set relates to SW480. The experiment in a line: Cell viability (MTT) assay, 24-h IC50, SW480. It is filed as cell-based, human. The following applies: Homo sapiens, SW480, 24 h, read-out: 24-h IC50.
A further data set concerns MIA-PaCa-2. Description: Cell viability (MTT) assay, 24-h IC50, MIA-PaCa-2. It is filed as cell-based, human. The settings on record: Homo sapiens, MIA PaCa-2, 24 h, read-out: 24-h IC50.
The next data set relates to APC^Min/+ mice. Description: APC Min/+ mice study of intestinal tumors. It is filed as in vivo. The following applies: 50 mg/kg/day gavage, 4 weeks. An excerpt:
APC^Min/+ mice study: Min mice have a truncating mutation in the Apc gene that predisposes them to the development of gastrointestinal tumors in the small intestine and colon (Lipkin M, Yang K, Edelmann W, et al. Preclinical mouse models for cancer chemoprevention studies. Ann N Y Acad Sci 1999; 889:14-9.). In many important ways, this model system represents a useful (and extensively utilized) experimental system that recapitulates the relevant steps of colon carcinogenesis.
Eleven week-old male C57BL/6J APC^Min/+ mice divided into […] groups of 10 mice/group were treated for 4 weeks via gavage administration as follows: group 1 was treated with vehicle (corn oil); and group 2 was treated with phospho-sulindac I 50 mg/kg/day.

Another data set relates to SW480 colon cancer cells. The experiment in a line: Nude mice xenograft study. It is filed as in vivo. The settings on record: 50 mg/kg/day gavage, 14 days. Here is the method: Nude mice xenograft study: Female nude mice CByJ.Cg-Foxn1 (5-6 weeks-old) were inoculated subcutaneously in their lower right flank with 1.5×10^6 SW480 colon cancer cells in a volume of 100 μl (containing 50% matrigel in PBS). Seven days later, animals were randomized into two groups (8 mice/group): group 1 received vehicle (1% (w/v) carboxy methylcellulose); group 2 received 50 mg/kg/day phospho-sulindac I. All drugs were administered in a solution of 1% (w/v) carboxy methylcellulose by gavage once daily (phospho-sulindac I and sulindac concentrations are equimolar). Tumors were measured twice a week with a digital microcaliper, and tumor volume (TV) was calculated using the formula: TV=[L×W×(L+W/2)×0.56], where L=length and W=width of tumor. After 14 days of treatment, animals were sacrificed, and tumors were removed and weighed.

A further data set deals with HT-29. Description: DFMO / phospho-sulindac I synergy, cell growth at 48 h, HT-29. The following applies: HT-29, 48 h; DFMO 5 mM, phospho-sulindac I 40 μM. It is filed as cell-based, human. How it is done:
A—Left panel: Cell viability was determined in HT-29 (full bars) and SW-480 (empty bars) cells after 48 h of incubation with 5 mM DFMO, 40 μM phospho-sulindac (P-S) or simultaneous combination of DFMO and P-S. Data are expressed as percentage of control cells (cells incubated only with DMSO). […] Right panel: In this isobologram the additivity line connects the IC50 value of each compound used alone. A and B represent two different dose pairs of each compound (their respective concentrations are shown in parentheses). The location of both A and B below the additivity line signifies synergy. […] DNA content was determined from propidium iodide (PI) fluorescence. C—Apoptosis and necrosis were determined by combined staining with annexin V and PI and determining fluorescence intensity. The percentages of apoptotic cells were determined using the dual staining with annexin V and propidium iodide and are indicated in each quadrant: left bottom quadrant, viable cells (annexin V-negative/PI-negative); right bottom quadrant, early apoptotic cells (annexin V-positive/PI-negative); right upper quadrant, late apoptotic cells (annexin V-positive/PI-positive); left upper quadrant, necrotic cells (annexin V-negative, PI-positive). […]

The test system of data set [1] is spermidine/spermine N^1-acetyltransferase (SSAT). Description: SSAT enzymatic activity in HT-29 cells. It is filed as cell-based, human. The following applies: HT-29, 24 h; phospho-sulindac I 85 μM; P<0.05 versus control. How it is done: (§1) SW480 cells were incubated without or with phospho-sulindac I (P-S) for up to 24 h and SSAT activity was determined at each time point by determining the amount of labelled N1-acetylspermidine synthesized from [^14C]acetyl-CoA and unlabeled spermidine.
(§2) The effect of phospho-sulindac I on polyamines is mediated, at least in part, by activation of SSAT by phospho-sulindac I. It is known that conventional sulindac induces SSAT activity (Babbar et al., Cyclooxygenase-independent induction of apoptosis by sulindac sulfone is mediated by polyamines in colon cancer. J Biol Chem 2003; 278(48):47762-75.). Incubation of HT-29 and SW480 cells with 85 μM phospho-sulindac I for 24 h leads to a 3- and 4.4-fold increase of SSAT activity (P<0.05 versus control), respectively. On the other hand, incubation with sulindac led to a 1.5 and 2.5-fold increase of SSAT activity (P<0.05 versus control) in HT-29 and SW480 cells, respectively.

Data set [2] shares this test system. Description: SSAT enzymatic activity in SW480 cells. It is filed as cell-based, human. Here is the method:
as §1, §2

The subject of a further data set is Salmonella typhimurium. The experiment in a line: Ames mutagenicity assay (reverse mutations). It is filed as cell-based. The following applies: two strains, presence and absence of S9 activation. How it is done:
We assessed the safety of phospho-sulindac I by examining its genotoxicity by the Ames test and its gastrointestinal and other toxicity by performing a toxicological study in mice.
The mutagenic potential of phospho-sulindac I was evaluated by measuring its ability to induce reverse mutations at selected loci of two strains of Salmonella typhimurium in the presence and absence of S9 activation.
(The Ames test uses bacterial strains that need an amino acid and regain growth without it when mutated back.)

The format of data set [3] is in vivo. The following applies: 5 days oral gavage. How it is done: Phospho-sulindac I lacked gastrointestinal toxicity in mice; gastrointestinal toxicity is the major side effect of sulindac as well as of the entire class of NSAIDs. We evaluated in mice the potential toxicity of phospho-sulindac I. Three groups, each consisting of 8 female C57BL/6J+/+mice 6 wks of age, were treated for 5 days by oral gavage with equimolar amounts of phospho-sulindac I (317 mg/kg/d) or conventional sulindac (200 mg/kg/day) or vehicle. Mice were weighed at time 0 and on days 3 and 5. Mice surviving to the end of the study were euthanized and necropsied.
The stomachs of sulindac-treated animals were larger than those of the other two groups and in some the liver appeared hyperemic.

The structures appear in SMILES notation.

For `CCOP(=O)(OCC)OCCCCOC(=O)CC1=C(C)/C(=C/c2ccc([S+](C)[O-])cc2)c2ccc(F)cc21` (stereo not shown) [Phospho-sulindac I], the IC50 (in general, the concentration needed to halve the response being measured) with MCF-7 amounted to 62 µM; in the data set with HT29, 65 µM; with SW480 it was 98 µM; in the data set with MIA-PaCa-2, 88 µM. In addition, the “signs of toxicity in Min mice” value in the data set on APC^Min/+ mice is listed as “without any overt signs of toxicity”. Also, the “decreased the number of tumors in the small intestine” value in the data set on APC^Min/+ mice (vs vehicle, p<0.002) stood at 57.2%. In the data set on APC^Min/+ mice (vs vehicle, p<0.02), the “reduction of tumors in the colon” value was 61.8%. For the same compound, the “number of colon tumors” value in the data set on APC^Min/+ mice (vehicle 1.6±0.8) was 0.6±0.5. Further, the “number of intestinal tumors” value in the data set on APC^Min/+ mice (vehicle 33.6±8.7) worked out at 19.4±12.0. Further, the “tolerability in xenograft study” value with SW480 colon cancer cells is recorded as “no weight loss or other signs of toxicity were observed”. This compound came in with a mean tumor weight with SW480 colon cancer cells (mean±SEM, vehicle 0.246±0.041) of 0.097±0.018. Further, the “reduction in tumor weight” value in the data set on SW480 colon cancer cells (vs vehicle, p<0.05) was determined as 60%. Also, in the data set with HT-29, the “reduction in cell number” value was determined as 41%. The “increase of SSAT activity” value in data set [1] worked out at 3 fold; in data set [2] (SW480, 24 h, phospho-sulindac I 85 μM, P<0.05 versus control), 4.4 fold. Besides, the “induction of SSAT compared to vehicle-treated controls” value in data set [2] (SW480, 85 μM, 12 h of incubation) is 4 fold. Moreover, the “maximum increase of SSAT” value in data set [2] (SW480, 85 μM, 18 h of incubation) is 5.5 fold. Further, the “genotoxicity (mutagenic potential)” value with Salmonella typhimurium is reported as “negative for genotoxicity”. Also, the “inspection of the heart, lungs, spleen, kidneys and liver” value in data set [3] (317 mg/kg/d) is reported as “no abnormalities”. In addition, in [3] (phospho-sulindac I 317 mg/kg/d, sulindac 200 mg/kg/day), the “gastrointestinal or other toxicity (necropsy)” value is reported as “no evidence of gastrointestinal or other toxicity”. Moreover, in [3] (phospho-sulindac I 317 mg/kg/d, sulindac 200 mg/kg/day, 8 mice/group), the mortality – broadly, the percentage killed – amounted to 0%. For the same compound, the “body weight at end of study” value in [3] (phospho-sulindac I 317 mg/kg/d, sulindac 200 mg/kg/day, start 16.3±1.2, mean±SD) worked out at 15.7 ± 1.2 g.
